Test results taken from article PMC5677370, “Structure-based nuclear import mechanism of histones H3 and H4 mediated by Kap123” (eLife, 2017).

Columns and labels:
[1] = test system: wild-type Kl Kap123; test: SPR binding of wild-type or mutant H3_1–35-/H4_1–21-NLS peptides to immobilized wild-type Kap123; design: species or system Kluyveromyces lactis; details: 10 mM HEPES, 150 mM NaCl, 7°C, relative to wild-type; for affinity of mutant H3-NLS toward Kap123: wild-type Kap123 immobilized 7500 RU on CM5, H3_1–35-NLS peptides 0-5 μM
Method: Figure 5. Surface plasmon resonance analysis of wild-type Kl Kap123 in the presence of wild-type or mutants of H3_1–35-/H4_1–21-NLSs. The biacore diagrams (a) and the normalized bar graph (c) of wild-type Kap123 in the presence of wild-type or mutant H3_1-35-NLS. The wild-type Kap123 was immobilized on a CM5 chip with 7500 RU and the wild-type or mutant H3_1–35-NLS peptides (H3_K14A, H3_K14Q, H3_K23A, H3_K23Q, or H3_K14Q/K23Q) were injected at different concentrations (0, 0.07, 0.15, 0.32, 0.65, 1.25, 2.5, and 5 μM). The biacore diagrams (b) and the bar graph (d) of wild-type Kap123 in the presence of wild-type or mutant H4_1–21-NLS. The wild-type Kap123 was immobilized on a CM5 chip with 7116 RU and the wild-type or mutant H4_1–21-NLS peptides (H4_K16A or H4_K5Q/K12Q) were injected at different concentrations (0, 0.32, 0.62, 1.25, 2.5, 5, and 10 μM). The H4K16Q peptide was used at different concentrations (0, 0.7, 1.5, 3, 6, 12, and 25 uM). See details in Materials and method section. Red-colored sensorgrams represent positive controls of wild-type Kap123, which were injected 2000 nM wild-type Kap123 before and after sample injection (a–b). The relative binding between wild-type Kap123 and mutant peptides was measured at five different concentrations for generating error bars (c–e). (e) The normalized affinity bar graph of H3-/H4-NLS toward wild-type Kap123 was derived from (a) and (b).
A CM5 chip (GE healthcare) was coated with streptavidin in 10 mM acetate pH 4.5 at a flow rate of 5 μl/min. The biotinylated C-terminal histone H3 peptide (residues 1–35) was synthesized (Anygen, South Korea) and immobilized on the CM5 chip coated with streptavidin with a flow rate of 5 μl/min in the binding buffer (10 mM HEPES, 150 mM NaCl). Various concentrations of the wild-type and mutant Kl Kap123 protein (see figure legends of Figures 3 and 4) were prepared in the binding buffer with 2 mM TCEP and then injected at the flow rate of 30 μl/min in the binding buffer using a T200 instrument (GE Healthcare) at 7°C. After injecting the sample, the chip was regenerated by a regeneration buffer (1 M NaCl and 20 mM NaOH in binding buffer) at a flow rate of 30 μl/min. For measuring the interaction of wild-type Kl Kap123 and mutant histone H3 or H4 peptides, 0.1 μM Kap123 diluted in10mM acetate pH 4.0 was immobilized 7100 RU on the CM5 chip at flow rate of 5 μl/min. Peptides of histone H3 or H4 mutants were injected at a flow rate of 30 μl/min in the binding buffer and the binding was monitored at various concentrations (0, 0.31, 0.62, 1.25, 2.5, 5 and 10 uM) at 7°C. For the H4K16Q peptide, Kap 123 was immobilized with 5100 RU on CM5 chip, and H4K16Q and wild-type H4 peptides (0, 0.7, 1.5, 3, 6, 12 and 25 uM) were injected as analytes at a flow rate of 30 μl/min at 7°C.

[2] = target: Kapβ2; details: ref Soniat et al., 2016; read-out: KD of Kapβ2-H3_1–47-NLS interaction; cited from earlier work
Text: Accumulated evidence illustrates that cytosolic histones H3 and H4 are acetylated prior to nuclear import and believed to play a role in the translocation process mediated by Kap123 ([Sobel et al., 1994]; [Sobel et al., 1995]; [Loyola et al., 2006]; [Jasencakova et al., 2010]; [Ma et al., 1998]; [Blackwell et al., 2007]; [Kuo et al., 1996]).

[3] = test system: Kap123-H3-NLS; test: Competition pull-down: pre-assembled MBP-Kap123-H3-NLS challenged by H4-NLS; format: binding; details: amylose affinity pull-down, MBP-tagged Kap123 pre-assembled with H3_1–59-Sumo, challenged by H4_1–48-Sumo (wild-type or mutant) 0x, 1x, 2x, 5x, 10x; 30 mM Tris–HCl pH 8.0, 50 mM NaCl, 1 mM DTT, 0.01% NP-40; 90 mins at 4°C; three independent assays
Method: Figure 6. Competition assay of H3- and H4-NLSs (wild-type H4 and mutant H4^K5Q/K12Q) toward Kap123 association. Competition of H3_1–59- and H4_1–48-Sumo (a) as well as H3_1–59- and H4_1–48 ^K5Q/K12Q-Sumo (b) toward Kap123 binding was monitored by amylose affinity pull-downs using MBP-tagged Kap123. A fixed amount of the pre-assembled complex of MBP-tagged Kap123 and H4_1–48-Sumo was challenged by an increasing amount of H3_1–59-Sumo. The same competition assay was done by using pre-incubated MBP-tagged Kap123-H3_1–59-Sumo and gradually increasing the amount of H4_1–48-Sumo either with wild-type (a) or mutant (b), K5Q/K12Q) H4 sequence. (c–d) The normalized bar graphs of remaining H3_1–59- and H4_1–48-NLS-Sumo after challenged with increased amounts of H4_1–48- and H3_1–59-NLS-Sumo (0x, 1x, 2x, 5x, and 10x) toward Kap123, respectively. Either H4_1–48-NLS-Sumo (c) or H4_1–48^K5Q/K12Q-NLS-Sumo (d) was used for the H3_1–59-NLS-Sumo competition. Three independent competition assays were carried out and the band intensity was measured to calculate the error bar. Figure 6—figure supplement 1. […] (a) Competition of H3_1–59-Sumo using either H4_1–48-Sumo or H4_1–48 ^K5Q/K8Q/K12Q-Sumo toward Kap123 binding was monitored by amylose affinity pull-downs using MBP-tagged Kap123. […] Three independent competition assays were carried out and the band intensity was measured to calculate the error bar. […]

[4] = test system: nuclear translocation of the H4-NLS-GFP reporter; details: GFP reporter assay; ref Blackwell et al., 2007; cited from earlier work

For H3 K23A, the “affinity of mutant H3-NLS toward Kap123” value ([1]; five concentrations) was “decreased the affinity toward Kap123”.

In the case of “H3_1–47-NLS: histone H3 residues 1–47 NLS bound to Kapβ2”, the Kd [2] is listed as 77.1 nM.

In the case of “H4-NLS^K5Q/K8Q/K12Q: tri-acetylation mimic mutant of H4-NLS (H4_1–48-Sumo in competition assay)”, the “competition with H3-NLS for Kap123” value [3] is given as “no longer competed with H3-NLS in Kap123 interaction” and the “nuclear translocation of H4-NLS-GFP reporter, acetylation mimic” value [4] is given as “dramatically reduced the nuclear translocation”.

For H3 K23Q, the “affinity of mutant H3-NLS toward Kap123” value ([1]; five concentrations) was “decreased the affinity toward Kap123”.

For H4-NLS^K16Q, the “affinity of H4 K16Q toward Kap123” value ([1]; Kap123 immobilized 5100 RU on CM5, H4K16Q 0-25 uM) was “reduced the affinity toward Kap123 although the effect was mild”.

For H3 K14A, the “affinity of mutant H3-NLS toward Kap123” value ([1]; five concentrations) was “decreased the affinity toward Kap123”.

In the case of “H4_1–48^K5Q/K12Q-Sumo: C-terminal Sumo-tagged histone H4_1–48, K5Q/K12Q”, the “competition with H3-NLS for Kap123” value [3] is reported as “loss of competition”.

With H4-NLS^K16A the “affinity of mutant H4-NLS toward Kap123” value ([1]; wild-type Kap123 immobilized 7116 RU on CM5, H4_1–21-NLS peptides 0-10 μM, five concentrations) was “reduced the affinity toward Kap123 although the effect was mild”.

With H3 K14Q the “affinity of mutant H3-NLS toward Kap123” value ([1]; five concentrations) was “decreased the affinity toward Kap123”.
